These results are taken from patent US20240226123A9, “USE OF CANNABIDIVARIN IN THE TREATMENT OF SEIZURES ASSOCIATED WITH CANINE EPILEPSY” (GW Research Limited, priority 2021, published 2024).

For one series, the system named is focal seizures in humans. The note with it: Phase II, placebo group similar; cited from earlier work.
For series [1], the system named is postnatal day 10 and 20 rats. The note with it: cited from earlier work.
In series [2] the test system is spike-and-wave discharges induced by gamma-butyrolactone (GBL). The series is described as follows: GBL induced absence seizure model, quantified EEG (spectral power, cortex). The format is in vivo, beagle dogs.
Method: The experiment was carried out on nine male non-naïve beagle dogs, weighing 9-15 kg. All animals were housed in a box or in a kennel under natural lighting with restricted access to food (approx. 300 g/animal/day) and unlimited access to water.
Dogs were implanted with an Emka Technologies telemetric device. Following an incision in the lateral neck region, the telemetric device was introduced into a pouch under the skin. The positive and negative biopotential electrodes were coiled into a loop and tunnelled subcutaneously to protrude into the opened scalp incision. The skin incisions then were closed.
Following a sagittal incision of the scalp, the top of the skull was prepared for implantation. The incision was performed between bregma and lambda sutures in order to place electrodes over the parietal cortex. Three small holes were drilled into the skull, on the right hemisphere. The tips of the electrodes were then pushed through the holes through the skull onto the dura mater. The electrodes were connected to small plugs, placed into a connector and the whole assembly was secured on skull with dental cement. The skin incisions then were closed using aseptic chirurgical thread.
Approximately 2 weeks later, the dogs were placed in a sling for the experiment.
For EEG recording, a telemetry receiver was located nearby the animal to record EEG.
All generated data was acquired and analysed using the EMKA Technologies software. The quality of the EEG signals was checked before launching EEG recording.
Before the experiment, EEG signals were recorded during a few minutes in baseline conditions to check the quality of the signals.
The baseline EEG recording was done for each dog, one day before the test session and lasted 40 minutes. Baseline and test sessions were done at the same time of the day for each dog.
EEG signals were recorded during 40 minutes to evaluate spike-and-wave discharges. The latency to observe spike-and-wave discharges was determined off-line on EEG signals.
The differential outputs between the 2 electrodes at each implantation site were digitized on-line at a sampling rate of 500 Hz/channel and the data stored in raw data files.
EEG was quantitatively analysed by spectral analysis using a Fast Fourier Transform algorithm. Spectra were calculated from epochs of 4.1-second duration. The mean total spectral power between 1.5 and 64 Hz and the power in 6 sub-frequency bands per brain structure recorded (1.5-4 (delta), 5-8 (theta), 8.5-12.5 (alpha), 13-35 (beta), 36-64 (gamma) and 3-6 Hz) was calculated on four 10-minute periods (from 0 to 10, 10 to 20, 20 to 30 and 30 to 40 minutes during baseline and test sessions).
Before being submitted to further analysis, all spectra containing recording artefacts found on visual inspection of the EEG traces were eliminated. Then the averages of 10-minute intervals of the verified individual spectra were saved into data files which then were transferred into Excel calculation sheets.
For series [3], the system named is pilocarpine-induced seizures. As to conditions: rodent seizure models; cited from earlier work.
Series [4] is described as follows: Adverse effects observed in dogs of the GBL model studies.
The mark [5] stands for this setting: CBDV 100 mg/kg p.o. 4 hours before GBL, across all four time periods.

`C=C(C)[C@@H]1CCC(C)=C[C@H]1c1c(O)cc(CCC)cc1O` [CBDV, cannabidivarin]: the “reductions in focal seizures” value in the series with focal seizures in humans is “approximately 40%”. For the same compound, in series [1], the anticonvulsant action entry is “age and model-specific profile of anticonvulsant action”. Moreover, in series [2] (setting [5]), the “power of high frequency bands (beta and gamma)” value is “increased”; the “spectral power of lower frequency bands (delta, theta and alpha)” value is recorded as “decreased”. Moreover, the “spectral power on delta frequency bands” value in series [2] (CBDV 100 mg/kg p.o. 4 hours before GBL, time-interval 30-40 minutes, vs vehicle controls, p<0.05) was “significantly decreased”. For the same compound, the “spectral power on 3-6 Hz frequency band” value in series [2] (CBDV 100 mg/kg p.o., following GBL administration, vs vehicle control) is on record as “lowered”. Besides, the “effect in pilocarpine-induced seizures” value in series [3] is “not found to have any effect”.

`CN1C(=O)CN=C(c2ccccc2)c2cc(Cl)ccc21` [Diazepam]: the adverse effects observed entry is “Motor incoordination and psychotic effects (stereotypies, involuntary movements, barks)” in series [4] (diazepam 4 mg/kg, three dogs, during the test, after GBL administration); “the symptoms were stronger” in series [4] (diazepam 6 mg/kg, two dogs, GBL could not be administered). Further, the “power of high frequency bands (beta and gamma)” value in series [2] (Diazepam 2 mg/kg p.o., across all four time periods) is “increased”.
